These results are taken from US11485980B2, “Method of meristem excision and transformation” (Monsanto Technology LLC, priority 2007, dated 2022).

In assay [1] the test system is cotton explants. Description: Selection of transformed cotton explants with selective agent in tissue culture medium.
For assay [2], the system named is cotton explants. Description: Spectinomycin in co-cultivation medium during Agrobacterium-mediated transformation. The note with it: spectinomycin 50-100 ppm included in the co-cultivation medium; FIG. 8. The protocol:
After the PlantconTM was closed, it was inserted into an appropriately sized holder, which was placed into a sonicator (e.g. L&R Ultrasonics QS140; L&R Manufacturing Co., […].; or a Honda […] sonicator, Honda, Denshi Japan). […] Sigma 526-36-23; Sigma Chemical Co, St. Louis, Mo.). After up to 5 min of sonication, the PlantconTM was placed securely on a shaker at 65-70 rpm or higher for 10 min for incubation. After inoculation, the Agrobacterium inoculum was removed from the PlantconTM. […] The INO medium may also be supplemented with plant growth regulators such as gibberellins (GA3), auxins (e.g. NAA, IBA, IAA, 2,4-D, dicamba, etc), cytokinins (e.g.

For `COc1c(Cl)ccc(Cl)c1C(=O)O` [dicamba], in the assay with cotton explants [1] (selection agent in tissue culture medium, machine excised cotton explants after Agrobacterium co-cultivation), the “Stably transformed plants produced at concentrations (ppm)” value came to 0.3 ppm.
Turning to `CN[C@@H]1[C@H](O)[C@H](NC)[C@H]2O[C@@]3(O)C(=O)C[C@@H](C)O[C@H]3O[C@@H]2[C@H]1O` [spectinomycin], in the assay with cotton explants [1] (spectinomycin selection, transformed tissues green and properly developing, FIG. 5), the “Appearance of non-transformed tissues under selection” value is “bleached and often malformed”. Also, in the assay with cotton explants [2], the “Effect on transformation frequency (TF)” value is on record as “enhanced TF”.
